Patent publication US6974804B2, “Esters” (Unilever Home & Personal Care USA, division of Conopco, Inc., priority 2000, dated 2005)

How the values were obtained:
Type in all cases: physicochemical
[1] = Visual assessment score (clarity of gel in 1 cm cuvette); settings: gel in 60:40 w/w Silkflo 364:DC245; score scale −12 to 8
Description: A gel contained within a 1 cm thick cuvette was placed directly on to a sheet of white paper on which 21 sets of figures where printed in black. The size and thickness of the figures varied systematically and were numbered from −12 (the largest, thickest set) through 0 to 8 (the smallest thinnest set) The score given to each gel was the highest numbered set which could be read clearly through the gel, the higher the number, the higher the clarity.

[2] = Gelling of water-immiscible cosmetic liquids in 96 well glass micro-titre plate; set-up: key: gel; g4: gel after overnight (18 hrs) storage at 4° C.; g22: gel after overnight (18 hrs) storage at 22° C.; sg: soft gel; sg22: soft gel after overnight (18 hrs) storage at 22° C.; solution; *: the test at 4° C. was not carried out; settings: for gelling of ISA: 150° C. 2.5 hours, cooled to ambient
Experimental: In this Example, various samples of esterified cellobiose prepared as in Example 1 or 2 above, were used to gel water-immiscible cosmetic liquids, in accordance with the procedure given below, in which a large number of gels can be prepared simultaneously.
The samples were tested in a 96 well (8×12 rows) glass micro-titre plate. […] About 0.01 or 0.02 g of each esterified cellobiose material was placed into 8 consecutive wells in a single row, so that each well contained approximately 5% or 10% of the cellobiose ester. The balance in each well comprised the cosmetic liquid by addition of approximately 0.2 g of the respective liquid to each cell. A glass lid was placed on top of the plate. The plate was carefully placed in a thermostatically controlled fan-assisted oven set at 150° C. for 2.5 hours. The plate was removed from the oven and allowed to cool naturally to ambient laboratory temperature. The contents of the wells were assessed at the end of the cooling period, by visual inspection and by poking the contents of each well with a micro-spatula. The plates were stored at […] for 18 hours and the contents inspected, and further stored for 18 hours at 4° C. and inspected for a third time. The results obtained in the tests are summarised in Table 5 below, in which the legend is as follows: […]

[3] = Stability testing of gels: crystal growth visible by eye on storage at 37° C.
Experimental: Gels were made up using 10% structurant in a 60:40 mixture of Hydrogenated Polyisobutene (Panalene L14E):DC245. The gels, in sealed glass bottles, were left to stand for 18 hrs at room temperature, after which they were transferred to an oven thermostatically controlled to 37° C. Samples were checked periodically for signs of crystal growth visible by eye. REF1 is cellobiose octanonanoate.
Gels were made up and tested in accordance with the procedure in Example 6, as such or modified by employing a weight ratio of 9% of REF1 and 1% of an additional structurant as specified in Table 13 below.
The test procedure of Example 9 was repeated, but using ACB structurant REF2 alone as the structurant or to which a CHME structurant was added.

[4] = 5% cellobiose ester in Fluid AP
[5] = 5% cellobiose ester in Mineral oil
[6] = 5% cellobiose ester in Polydecene
[7] = 10% cellobiose ester in Fluid AP
[8] = 10% cellobiose ester in Mineral oil
[9] = 10% cellobiose ester in Polydecene

Row | Molecule | Visual [1] | gelling of DC556 ([2]; 5% cellobiose ester in DC556) | gelling of Fluid AP [2, 4] | gelling of ISA ([2]; 5% cellobiose ester in ISA) | gelling of Mineral oil [2, 5] | gelling of Polydecene [2, 6] | gelling of DC556 ([2]; 10% cellobiose ester in DC556) | gelling of Fluid AP [2, 7] | gelling of ISA ([2]; 10% cellobiose ester in ISA) | gelling of Mineral oil [2, 8] | gelling of Polydecene [2, 9] | Observation ([3]; 10% structurant in 60:40 Hydrogenated Polyisobutene (Panalene L14E):DC245, after 18 hrs at RT) | Observation ([3]; 10% structurant in 60:40 Hydrogenated Polyisobutene (Panalene L14E):DC245, after 18 hrs at RT, listed as REF1) | Observation ([3]; 10% structurant in 60:40 Panalene L14E:DC245, after 6 hrs at 37° C.) | Observation ([3]; 10% structurant in 60:40 Panalene L14E:DC245, after 6 hrs at 37° C., listed as REF1) | Observation ([3]; 10% structurant in 60:40 Panalene L14E:DC245, after 3 days at 37° C.) | Observation ([3]; 10% structurant in 60:40 Panalene L14E:DC245, after 3 days at 37° C., listed as REF1) | gelling of IPM ([2]; 5% cellobiose ester in IPM) | gelling of IPM ([2]; 10% cellobiose ester in IPM)
1 | cellobiose heptanonanoate monocyclohexanoate [Ex 3.2] | 5 |  |  |  |  |  |  |  |  |  |  |  |  |  |  |  |  |  | 
2 | CCCCCCCCC(=O)OCC1OC(OC2C(COC(=O)CCCCCCCC)OC(OC(=O)CCCCCC)C(OC(=O)CCCCCCCC)C2OC(=O)CCCCCCCC)C(OC(=O)CCCCCCCC)C(OC(=O)CCCCCCCC)C1OC(=O)CCCCCCCC (mixture of isomers) [Ex 1.22] |  | g22 | gel | sg22 | sol | gel | g22 | gel | g22 | g22 | gel |  |  |  |  |  |  |  | 
3 | CCCCCCCCC(=O)OCC1OC(OC2C(COC(=O)CCCCCCCC)OC(OC(=O)C3CCCC3)C(OC(=O)CCCCCCCC)C2OC(=O)CCCCCCCC)C(OC(=O)CCCCCCCC)C(OC(=O)CCCCCCCC)C1OC(=O)CCCCCCCC (mixture of isomers) [Ex 3.5] |  | g22 | sg22 | sg22 | sol* | gel | gel | gel | g22 | gel | gel |  |  |  |  |  |  |  | 
4 | CCCCCCCCCC(=O)OCC1OC(OC2C(COC(=O)CCCCCCCCC)OC(OC(=O)c3ccccc3)C(OC(=O)CCCCCCCCC)C2OC(=O)CCCCCCCCC)C(OC(=O)CCCCCCCCC)C(OC(=O)CCCCCCCCC)C1OC(=O)CCCCCCCCC (mixture of isomers) [Ex 2.2] |  | gel | gel | gel | gel | gel | gel | gel | gel | gel | gel |  |  |  |  |  |  |  | 
5 | cellobiose heptanonanoate monocyclohexanoate [Ex 1.13] | 6 |  |  |  |  |  |  |  |  |  |  |  |  |  |  |  |  |  | 
6 | cellobiose heptanonanoate monocyclohexanoate [Ex 1.12] | 3 |  |  |  |  |  |  |  |  |  |  |  |  |  |  |  |  |  | 
7 | CCCCCCCCCCCCCCCC(=O)OC1OC(COC(=O)CCCCCCCCC)C(OC2OC(COC(=O)CCCCCCCCC)C(OC(=O)CCCCCCCCC)C(OC(=O)CCCCCCCCC)C2OC(=O)CCCCCCCCC)C(OC(=O)CCCCCCCCC)C1OC(=O)CCCCCCCCC (mixture of isomers) [Ex 2.12] |  | gel | gel | g22 | gel | gel | gel | gel | gel | gel | gel |  |  |  |  |  |  |  | 
8 | CCCCCCCCC(=O)OC[C@H]1O[C@@H](O[C@H]2[C@H](OC(=O)CCCCCCCC)[C@@H](OC(=O)CCCCCCCC)C(OC(=O)CCCCCCCC)O[C@@H]2COC(=O)CCCCCCCC)[C@H](OC(=O)CCCCCCCC)[C@@H](OC(=O)CCCCCCCC)[C@@H]1OC(=O)CCCCCCCC (stereo partly drawn) [REF 1, cellobiose octanonanoate] |  |  |  |  |  |  |  |  |  |  |  | Small crystals visible in gel after | Small crystals visible in gel after 18 | More and bigger crystals after 6 hrs | More and bigger crystals after 6 hrs at | Crystals throughout gel after 3 days | 37° C.; Crystals throughout gel after 3 days |  | 
9 | CCCCCCCCC(=O)OCC1OC(OC2C(COC(=O)CCCCCCCC)OC(OC(=O)CCCCC)C(OC(=O)CCCCCCCC)C2OC(=O)CCCCCCCC)C(OC(=O)CCCCCCCC)C(OC(=O)CCCCCCCC)C1OC(=O)CCCCCCCC (mixture of isomers) [Ex 1.21] |  | g22 | gel | sg22 | g22 | gel | gel | gel | g22 | g22 | gel |  |  |  |  |  |  |  | 
10 | cellobiose heptanonanoate monocyclohexanoate [Ex 1.14] | 3 | gel | gel | g22 | gel | gel | gel | gel | gel | gel | gel |  |  |  |  |  |  | sol | g4
11 | cellobiose heptanonanoate monocyclohexanoate [Ex 3.1] | 3 |  |  |  |  |  |  |  |  |  |  |  |  |  |  |  |  |  | 
12 | CCCCCCCCCCCCCCCC(=O)OC1OC(COC(=O)CCCCCCCCC)C(OC2OC(COC(=O)CCCCCCCCC)C(OC(=O)CCCCCCCCC)C(OC(=O)CCCCCCCCC)C2OC(=O)CCCCCCCCC)C(OC(=O)CCCCCCCCC)C1OC(=O)CCCCCCCCC (mixture of isomers) [Ex 2.13] |  | gel | gel | gel | gel | gel | gel | gel | gel | gel | gel |  |  |  |  |  |  |  | 
13 | CCCCCCCCCCCC(=O)OC1OC(COC(=O)CCCCCCCC)C(OC2OC(COC(=O)CCCCCCCC)C(OC(=O)CCCCCCCC)C(OC(=O)CCCCCCCC)C2OC(=O)CCCCCCCC)C(OC(=O)CCCCCCCC)C1OC(=O)CCCCCCCC (mixture of isomers) [Ex 1.23] |  | gel | sg | g22 | g22 | gel | gel | gel | g22 | g22 | gel |  |  |  |  |  |  |  | 
